Measurements taken from patent US20070105924A1 (priority 2005, published 2007).

Columns and labels:
GABA-AT [1] = biological target: T1, GABA-AT (Sus scrofa, UniProt P80147); experiment: Preliminary substrate activity test with [14C]-labeled α-ketoglutarate; type: biochemical, pig; settings: for Converted α-KG: incubation time 48 h, GABA-AT 0.7 μM, substrate 2.5 mM, α-KG 2.9 mM; for substrate activity for GABA-AT (in words): preliminary test, 48 h incubation
Source text: Tetrazole derivative 5 was the most efficient of the synthesized substrates. The tetrazole group was the best bioisostere for the carboxylic acid group in this series of compounds tested.

[2] = isosteric functionality compared with a carboxylic group; cited from earlier work
GABA-AT [3] = biological target: T1, GABA-AT; experiment: Time-dependent inhibition of GABA-AT (Kitz and Wilson replot); type: biochemical, pig; settings: for time-dependent inhibition of GABA-AT (in words): 9 and 10 compared with 8 at the same concentration
Experimental: Aliquots (20 μL) were withdrawn at timed intervals and were added immediately to the assay solution (575 μL) followed by the addition of excess SSDH (5 μL). The reaction rates were measured by a UV-vis spectrophotometer at 340 nm. […] A Kitz and Wilson replot was used to determine the kinetic constants kinact and KI, as referenced above.

GABA-AT [4] = biological target: T1, GABA-AT; experiment: Time-independent inhibition of GABA-AT; type: biochemical, pig; settings: 1-10 mM inhibitor, 25° C., read-out: estimated IC50
Source text: The percentage of remained enzyme activity was obtained by comparison to that of an untreated enzyme control. The logarithm of the percentage of remained activity is plotted versus the concentration of the inhibitors to calculate IC50 values.

[5] = time-dependent inhibition, 25 ° C., pH 8.5

T1 sequence (P80147 29-500): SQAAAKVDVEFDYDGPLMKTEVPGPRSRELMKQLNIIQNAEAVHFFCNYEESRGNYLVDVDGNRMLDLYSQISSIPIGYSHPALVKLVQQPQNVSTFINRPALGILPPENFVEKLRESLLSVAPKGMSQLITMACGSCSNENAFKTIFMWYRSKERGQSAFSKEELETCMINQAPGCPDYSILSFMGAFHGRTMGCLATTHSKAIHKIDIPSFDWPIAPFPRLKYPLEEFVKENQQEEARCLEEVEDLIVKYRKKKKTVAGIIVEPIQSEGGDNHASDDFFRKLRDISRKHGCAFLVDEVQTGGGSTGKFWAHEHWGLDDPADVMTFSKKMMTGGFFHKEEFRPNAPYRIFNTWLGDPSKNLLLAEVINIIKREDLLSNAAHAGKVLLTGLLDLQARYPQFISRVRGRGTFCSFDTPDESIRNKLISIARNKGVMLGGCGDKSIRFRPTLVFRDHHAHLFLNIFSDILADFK

Row | Structure (SMILES) | Converted α-KG (GABA-AT [1]) | substrate activity for GABA-AT (in words) (GABA-AT [1]) | time-dependent inhibition of GABA-AT (in words) (GABA-AT [3]) | further results
1 | COC(=O)NC(=O)CCN [Compound 2, Methyl β-alanylcarbamate] | 1.3% | substrates for GABA-AT |  | pKa [2]: ~8
2 | CS(=O)(=O)NC(=O)CCN [Compound 3, Methyl b-alanylsulfonamide] | 6.4% | substrates for GABA-AT |  | pKa [2]: comparable to that of a carboxylic acid
3 | NCc1ccc2[nH]ccc2c1 [Compound 4, Indole-5-methanamine] | 0.1% | little or no substrate activity |  | 
4 | NCCc1nnn[nH]1 [Compound 5, 1H-Tetrazole-5-ethanamine] | 20% | substrates for GABA-AT |  | 
5 | C=CC(N)CCc1nnn[nH]1 (stereo not drawn) [Compound 8, 1H-Tetrzole-5-(α-vinyl-propanamine)] |  |  | showed time-dependent inhibition | times less efficient (kinact/KI) than vigabatrin (GABA-AT [3]; relative to racemic vigabatrin): 6.6 times; kinact/KI (GABA-AT [3]; time-dependent inhibition): 2.17 M⁻¹ s⁻¹; Ki (GABA-AT [3]; [5]): 5.6 mM; kinact (GABA-AT [3]; [5]): 0.0122 s⁻¹
6 | C=CC(N)CCc1nnn(C)n1 (stereo not drawn) [Compound 9, 2-Methyl-2H-tetrazole-5-(α-vinyl-propanamine)] |  |  | Neither 9 nor 10 showed time-dependent inhibition | IC50 (GABA-AT [4]): > 10 mM
7 | C=CC(N)CCc1nnnn1C (stereo not drawn) [Compound 10, 1-methyl-1H-tetrazole-5-(α-vinyl-propanamine)] |  |  | Neither 9 nor 10 showed time-dependent inhibition | IC50 (GABA-AT [4]): > 10 mM
8 | NCCCC(=O)O [GABA, γ-aminobutyric acid, reference compound] | 25% |  |  | 
